16 compounds from patent publication US5440031A, “1,4,10,13-tetraoxa-7,16-diazacyclooctadecane derivatives, pharmaceutical compositions containing them and their use for the removal of toxic metal ions and radioactive isotopes from living organism” (priority 1990, dated 1995) can be followed below.

Counter-ions that a name gives are not always drawn.

Series [1] is described as follows: acute toxicity, LD50/30, injection into blood circulation, 30 days observation. Format: in vivo, Swiss mice and Wistar rats. The conditions noted are these: in vivo, iv; dose causing death of 50% of animals within 30 days; slow injection into the blood circulation during 3 to 5 minutes; mice and rats; probit analysis. On the procedure: (§1) The acute toxicity values of the products prepared according to Examples 1 to 16 were determined on laboratory mice and rats in the following manner.
(§2) Solutions containing the compounds in various concentrations were prepared by using physiological saline solution or glucose solution of 5% by weight concentration and the active agents were administered in various concentrations into the blood circulation of the animals by injecting them slowly during 3 to 5 minutes. Groups consisting of 6 to 10 animals (Swiss mice and Wistar rats of both sexes) each were used for the various dose levels. […] The LD50/30 value (i.e. the dose causing the death of 50% of the experimental animals within 30 days) was determined from the number of animals died during this period by using probit analysis/D. J. Finney: Probit Analysis (2nd ed.) Cambridge University Press (1952)/. These values expressed in mmol/kg of body-weight for the active agents according to the invention are summarized in column (B) of Table 1.

A short description of series [2]: radioactive isotope elimination-increasing effect, isotope into abdominal cavity, whole-body retention. Format: in vivo, Swiss mice. The note with it: for EI value: effectivity (isotope elimination as % related to control) multiplied by LD50/30, 0-5 weak, 5-50 medium, 50-100 good, above 100 excellent; for F factor: multiplication of isotope elimination relative to untreated animals, i.v. 50 to 100 μmol/kg, 30 to 60 minutes after isotope. An excerpt:
The action of the compounds of formula (I) according to the invention, which manifests itself as an increase in the elimination of metal ions damaging the living organism, was investigated by using radioactive strontium or cerium ions on Swiss mice and Wistar rats of both sexes.
The elimination was studied on radioactive isotopes introduced in various routes to various sites, e.g. to the blood circulation, abdominal cavity, lungs, muscles or subcutaneous connective tissue of the experimental animals. The compound increasing the elimination of the isotopes was administered daily once or two times in the form of an injection, powder or liquid aerosol or plaster to the organism of the experimental animals. Thereafter, whole body activity measurements were performed and retention curves were taken up which then were compared to the results obtained in the control group.
The retention curves obtained were analysed on a computer. "Nonlinear Regression by the Code of BMDP-3R" (BMDP Statistical Software Manual, UCLA, Los Angeles, 1990, Chief Ed. W. J. Dixon) computer software was used for this purpose. It could be stated from the results obtained that the curves could be described by a two-component descending exponential function. Two data were calculated for characterizing the effectivity. One of these was the so-called F factor indicating the increase in the elimination in relation to the control and meaning the multiplication of the isotope elimination under effect of the test compound in relation to the untreated animals/see column (C) in Table 1/.
For the illustrative comparison of the compounds according to the invention additional characteristic data, the so-called EI values are given which were obtained by multiplying the extent of isotope elimination as percentage related to the control group (effectivity, E) with the acute toxicity value (LD50/30, innocuous, I)/see column (D) in Table 1/. Although the EI value is numerically not identical to the therapeutic ratio (safety index), it indicates in all cases to a weak or excellent activity of a product.
The radioactive isotope elimination-increasing effects of compounds prepared according to Examples 1 to 16 were compared on Swiss mice as described hereinafter.
An activity of 37 to 74 kBg (1 to 2 μCi) of radioactive strontium (Sr-85Cl2) or radioactive cerium (Ce-144Cl3), respectively, was administered into the abdominal cavity of the animals which were then divided into treatment groups consisting of 5 to 10 animals each. At 30 to 60 minutes after administration of the isotope, the animals of the treated groups were intravenously (i.v.) given the active agent used in an amount to achieve s concentration of 50 to 100 μmol/kg of body-weight in the animal organism for each treatment. The animals of the control groups were similarly treated with the carrier (sterile physiological saline or glucose solution of 5% by weight concentration) without active agent.
The amount of radioactivity introduced to the animal organism was determined immediately after administration of the isotope, thru these measurements were repeated daily or in every two the or three days in a device constructed for the purpose of the whole-body measurements on small animals. The counts observed were related to the starting activity value of the zero (0) day and a so-called retention/time correlation was obtained by considering the activity retained in the organism. The change of activity of the animal organism in the time is illustrated in FIG. 1 where the time (in days) elapsed after the treatment is shown on the abscissa and the whole-body retention as percentage is plotted on the ordinate. It can be seen that the rate of elimination of Sr-85 administered into the abdominal cavity of control animals was slow: within 1 day only 15%, within 4 days 25% and within 7 days 30% of the activity were eliminated from their organism and the elimination was even more delayed in the later period. […]

Series [3] deals with laboratory mice and rats. As to the kind of experiment: acute toxicity, LD50/30, injection into blood circulation, 30 days observation. The note with it: dose causing death of 50% of animals within 30 days, slow injection into the blood circulation during 3 to 5 minutes, mice and rats, probit analysis. Format: in vivo, Swiss mice and Wistar rats. On the procedure:
as §1, §2

For `O=C([O-])C(C(=O)[O-])N1CCOCCOCCN(C(C(=O)[O-])C(=O)O)CCOCCOCC1.[Na+].[Na+].[Na+]` [Example 11, N,N'-bis(dicarboxymethyl)-1,4,10,13-tetraoxa-7,16-diazacyclooctadecane trisodium salt], the LD50 at 720 h in series [1] was determined as 111 µmol/kg. Further, in series [2], the EI value amounted to 2.90 and the F factor is given as 2.6.
Regarding `CC(C(=O)[O-])(C(=O)[O-])N1CCOCCOCCN(C(C(=O)[O-])C(=O)[O-])CCOCCOCC1.[Na+].[Na+].[Na+].[Na+]` [Example 12, N-dicarboxymethyl-N'-(1,1'-dicarboxyethyl)-1,4,10,13-tetraoxa-7,16-diazacyclooctadecane tetrasodium salt], the LD50 at 720 h in series [1] turned out to be 305 µmol/kg. In series [2], the EI value amounted to 7.90 and the F factor was determined as 1.5.
“N,N'-bis(dicarboxymethyl)-1,4,10,13-tetraoxa-7,16-diazacyclooctadecane iron(II) complex disodium salt [Example 9]”: the “Acute toxicity LD50/30” value in series [3] was 0.250 mmol/kg. For the same compound, in series [2], the EI value was 8.25 and the F factor is recorded as 1.7.
As to `O=C([O-])C(C(=O)[O-])N1CCOCCOCCN(C(C(=O)[O-])C(=O)[O-])CCOCCOCC1.[K+].[K+].[K+].[K+]` [3/b, N,N'-bis(dicarboxymethyl)-1,4,10,13-tetraoxa-7,16-diazacyclooctadecane tetrapotassium salt], in series [3] (43200 min), the “Acute toxicity LD50/30” value was 0.272 mmol/kg. Further, in series [2], the EI value is reported as 8.90 and the F factor turned out to be 1.7.
For the compound `O=C([O-])C(C(=O)[O-])N1CCOCCOCCN(C(C(=O)[O-])C(=O)[O-])CCOCCOCC1.[Ca+2].[Ca+2]` [Example 8, N,N'-bis(dicarboxymethyl)-1,4,10,13-tetraoxa-7,16-diazacyclooctadecane calcium complex calcium salt], the “Acute toxicity LD50/30” value in series [3] was “above 1.5 mmol/kg”. Besides, in series [2], the EI value was determined as 58.00 and the F factor was found to be 1.6.
Turning to `O=C([O-])C(C(=O)[O-])N1CCOCCOCCN(C(C(=O)[O-])C(=O)[O-])CCOCCOCC1.[Na+].[Na+].[Na+].[Na+]` [1/b, N,N'-bis(dicarboxymethyl)-1,4,10,13-tetraoxa-7,16-diazacyclooctadecane tetrasodium salt], the “Acute toxicity LD50/30” value in series [3] (43200 min) is listed as 0.379 mmol/kg. Further, in series [2], the EI value worked out at 9.66 and the F factor was 2.8.
With `O=C([O-])C(C(=O)[O-])N1CCOCCOCCN(C(C(=O)[O-])C(=O)[O-])CCOCCOCC1.[Na+].[Na+].[Na+].[Na+]` [1/a, N,N'-bis(dicarboxymethyl)-1,4,10,13-tetraoxa-7,16-diazacyclooctadecane tetrasodium salt], the LD50 at 720 h in series [1] was 327 µmol/kg. Also, in series [2], the EI value was determined as 5.40 and the F factor amounted to 1.8.
For the compound “N,N'-bis(dicarboxymethyl)-1,4,10,13-tetraoxa-7,16-diazacyclooctadecane calcium complex disodium salt containing disodium hydroxymalonate and sodium chloride [6/a]”, the “Acute toxicity LD50/30” value in series [3] is on record as “above 3.0 mmol/kg”. Also, in series [2], the EI value was found to be 158.00 and the F factor worked out at 3.9.
With `O=C([O-])C(C(=O)[O-])N1CCOCCOCCN(C(C(=O)[O-])C(=O)[O-])CCOCCOCC1.[Na+].[Na+].[Zn+2]` [Example 10, N,N'-bis(dicarboxymethyl)-1,4,10,13-tetraoxa-7,16-diazacyclooctadecane zinc complex disodium salt], in series [3], the “Acute toxicity LD50/30” value came to 0.091 mmol/kg. For the same compound, in series [2], the EI value stood at 3.20 and the F factor was 2.3.
Compound `CC(C(=O)O)(C(=O)O)N1CCOCCOCCN(C(C)(C(=O)O)C(=O)O)CCOCCOCC1` [Example 15, N,N'-bis(1,1'-dicarboxyethyl)-1,4,10,13-tetraoxa-7,16-diazacyclooctadecanetetrasodium salt] showed an LD50 at 720 h in series [1] of 450 µmol/kg. Besides, in series [2], the EI value stood at 6.80 and the F factor is 1.3.
Taken in the same sequence, the figures for `O=C([O-])C(C(=O)[O-])N1CCOCCOCCN(C(C(=O)[O-])C(=O)[O-])CCOCCOCC1.[K+].[K+].[K+].[K+]` [3/a, N,N'-bis(dicarboxymethyl)-1,4,10,13-tetraoxa-7,16-diazacyclooctadecane tetrapotassium salt] were 333 µmol/kg, 12.30 and 2.3.
Taken in the same sequence, the figures for `O=C(O)C(C(=O)O)N1CCOCCOCCN(C(C(=O)O)C(=O)O)CCOCCOCC1` [Example 2, N,N'-bis(dicarboxymethyl)-1,4,10,13-tetraoxa-7,16-diazacyclooctadecane tetrasodium salt containing disodium hydroxy malonate] were 368 µmol/kg, 11.10 and 3.3.
The matching figures for `O=C(O)C(Cc1ccccc1)(C(=O)O)N1CCOCCOCCN(C(Cc2ccccc2)(C(=O)O)C(=O)O)CCOCCOCC1` [Example 16, N,N'-bis(benzyl-dicarboxymethyl)-1,4,10,13-tetraoxa-7,16-diazacyclooctadecane tetrasodium salt sodium bromide double salt]: 470 µmol/kg, 7.10 and 1.3.
In the case of “N,N'-bis(dicarboxymethyl)-1,4,10,13-tetraoxa-7,16-diazacyclooctadeoane calcium complex disodium salt containing sodium chloride [Example 5]”, the “Acute toxicity LD50/30” value in series [3] is “above 2.5 mmol/kg”. The “radioactivity excreted from the animal organism within 1 day” value in series [2] (Sr-85 into abdominal cavity, single treatment, 100 μmol/kg (stated for Example 13), control 15%) came out at 81%. The “radioactivity excreted from the animal organism within 4 days” value in series [2] (Sr-85 into abdominal cavity, single treatment, 100 μmol/kg (stated for Example 13), control 25%) came out at 84%. For the same compound, the “radioactivity excreted from the animal organism within 7 days” value in series [2] (Sr-85 into abdominal cavity, single treatment, 100 μmol/kg (stated for Example 13), control 30%) is recorded as 85%. Moreover, in series [2], the EI value came to 145.00 and the F factor is on record as 3.7.
With `N.N.O=C([O-])C(C(=O)[O-])N1CCOCCOCCN(C(C(=O)O)C(=O)O)CCOCCOCC1.[Ca+2]` [Example 7, N,N'-bis(dicarboxymethyl)-1,4,10,13-tetraoxa-7,16-diazacyclooctadecane calcium complex diammonium], the “Acute toxicity LD50/30” value in series [3] is listed as “above 2.5 mmol/kg”. Besides, in series [2], the EI value was 65.00 and the F factor was 1.7.
For the compound `O=C([O-])C(C(=O)[O-])N1CCOCCOCCN(C(C(=O)[O-])C(=O)[O-])CCOCCOCC1.[Mg+2].[Na+].[Na+]` [Example 4, N,N'-bis(dicarboxymethyl)-1,4,10,13-tetraoxa-7,16-diazacyclooctadecane magnesium complex disodium salt], the “Acute toxicity LD50/30” value in series [3] worked out at 0.211 mmol/kg. For the same compound, in series [2], the EI value turned out to be 7.30 and the F factor was found to be 2.3.

As usually defined, the LD50 is the dose at which mortality reaches 50%. Low values mean greater toxicity, high ones lower toxicity.
